Experimental data from PubChem BioAssay AID488788 (Broad Institute, 2010).
Results filed as inconclusive are left out. Calls of active or inactive are those of the source. The rule behind the calls is not given here.

Molecular target: CAAX prenyl protease 2 (Saccharomyces cerevisiae (strain ATCC 204508 / S288c)) (UniProt Q03530)
Test: Rce1p protease inhibitors, dose response, biochemical, plate reader, cherry-pick (AID 488788)
Conditions: Rce1p enzyme activity, at 10 µM (top of the series)

CAAX prenyl protease 2 (Saccharomyces cerevisiae (strain ATCC 204508 / S288c)), sequence (Q03530 whole entry, looked up): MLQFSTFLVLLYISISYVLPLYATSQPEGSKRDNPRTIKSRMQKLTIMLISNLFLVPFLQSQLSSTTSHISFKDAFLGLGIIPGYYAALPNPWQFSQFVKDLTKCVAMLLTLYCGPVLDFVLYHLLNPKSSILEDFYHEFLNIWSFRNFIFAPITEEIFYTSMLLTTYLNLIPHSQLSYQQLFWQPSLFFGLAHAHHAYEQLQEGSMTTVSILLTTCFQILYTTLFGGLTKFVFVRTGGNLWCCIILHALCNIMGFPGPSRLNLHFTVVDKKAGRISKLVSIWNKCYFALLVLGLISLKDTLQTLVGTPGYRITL

Which “activity change, negative = inhibition” value does the source give for `CC(=O)NC(Cc1c[nH]c2ccccc12)C(=O)O` (stereo unspecified) here?
The value was “inactive”.
